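In this assay, cells in 96-well plates receive the compound at five concentrations for 48 hours. Endpoints are linearly interpolated between the surrounding concentrations. The concentration for 50% growth inhibition is given as GI50. At the TGI there is no net growth.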
What was measured:
Experiment in all cases: growth of human tumour cells (NCI), 48 h
A498 renal = system: A498 renal
ACHN renal = system: ACHN renal
COLO 205 colon = system: COLO 205 colon
DU-145 prostate = system: DU-145 prostate
HOP-62 NSCLC = system: HOP-62 NSCLC
K-562 leukemia = system: K-562 leukemia
MDA-MB-231 breast = system: MDA-MB-231 breast
MDA-MB-435 = system: MDA-MB-435
MDA-N = system: MDA-N
NCI-H23 lung = system: NCI-H23 lung
SF-539 CNS = system: SF-539 CNS
UACC-257 melanoma = system: UACC-257 melanoma
OVCAR-4 ovarian = system: OVCAR-4 ovarian

CCOC(=O)C1=C(c2ccccc2)C12N(Cc1ccccc1)C(=O)C2(c1ccccc1)c1ccccc1 (stereo unspecified)
TGI (A498 renal): 90.9 µM | TGI (ACHN renal): > 100 µM | TGI (COLO 205 colon): 60.1 µM | TGI (DU-145 prostate): > 100 µM | TGI (HOP-62 NSCLC): > 100 µM | TGI (K-562 leukemia): > 100 µM | TGI (MDA-MB-231 breast): > 100 µM | TGI (MDA-MB-435): > 100 µM | TGI (MDA-N): > 100 µM | TGI (NCI-H23 lung): > 100 µM | TGI (SF-539 CNS): > 100 µM | TGI (UACC-257 melanoma): > 100 µM

O=C1c2cc3c(cc2CC1Cc1ccc2c(c1)CCC2)CCC3 (stereo unspecified)
TGI (A498 renal): > 100 µM | TGI (ACHN renal): > 100 µM | TGI (COLO 205 colon): 52.2 µM | TGI (DU-145 prostate): > 100 µM | TGI (HOP-62 NSCLC): > 100 µM | TGI (K-562 leukemia): > 100 µM | TGI (MDA-MB-231 breast): > 100 µM | TGI (MDA-MB-435): > 100 µM | TGI (MDA-N): > 100 µM | TGI (NCI-H23 lung): > 100 µM | TGI (OVCAR-4 ovarian): > 100 µM | TGI (SF-539 CNS): > 100 µM | TGI (UACC-257 melanoma): > 100 µM

COc1cc(-c2nc3cc(Cl)c(Cl)cc3[nH]2)ccc1OCC(=O)N=Nc1c(O)[nH]c2ccc(Cl)cc12
GI50 (ACHN renal): 1.69 µM | TGI (ACHN renal): > 100 µM | GI50 (COLO 205 colon): 0.344 µM | TGI (COLO 205 colon): 1.22 µM | GI50 (HOP-62 NSCLC): 0.455 µM | TGI (HOP-62 NSCLC): 1.98 µM | GI50 (K-562 leukemia): 0.284 µM | GI50 (MDA-MB-231 breast): 0.538 µM | TGI (MDA-MB-231 breast): 1.95 µM | GI50 (NCI-H23 lung): 0.489 µM | TGI (NCI-H23 lung): 3.09 µM | GI50 (OVCAR-4 ovarian): 0.403 µM | TGI (OVCAR-4 ovarian): > 100 µM

N#Cc1ccc(C2Oc3ccc(Cl)cc3C=C2[N+](=O)[O-])cc1 (stereo unspecified)
TGI (A498 renal): 6.31 µM | TGI (ACHN renal): 3.06 µM | TGI (COLO 205 colon): 1.87 µM | TGI (DU-145 prostate): 6.07 µM | TGI (HOP-62 NSCLC): 3.8 µM | TGI (K-562 leukemia): 2.04 µM | TGI (MDA-MB-231 breast): 3.63 µM | TGI (MDA-MB-435): 3.56 µM | TGI (MDA-N): 3.19 µM | TGI (NCI-H23 lung): 3.23 µM | TGI (OVCAR-4 ovarian): 3.45 µM | TGI (SF-539 CNS): 3.84 µM | TGI (UACC-257 melanoma): 6.75 µM
